Data taken from US20200281897A1, “INDAZOLE DERIVATIVES FOR CANCER TREATMENT” (Servicio Andaluz de Salud, priority 2016, published 2020).
Where two headings read alike, the source gives them in different places. Residues, ends and D or L forms follow the SMILES beside them. *: point of attachment. Cbz = O=C(OCc1ccccc1)*; CH2F = FC*

Assays:
Format in all cases: cell-based, human
[1] = tested on: HL60 and KG-1a; assay: Antagonists/inhibitors together with WIN-55,212-2, WST-1 viability in AML cells; conditions: WIN-55,212-2 10 μM, 18 hours; for effect of inhibitor on cannabinoid-induced loss of viability: WST-1; for effect of CB2 antagonist on cannabinoid-induced apoptosis: HL60 and KG1-a
Experimental: The cell lines and primary cells were cultured in 96-well plates (5×10e5 cells per well) with the addition of the indicated concentrations of WIN 55,212-2 or PGN cannabinoids in DMSO or with the solvent only in triplicate at 18, 48, and 72 hours. Caspase inhibitor Z-VAD (OMe)-FMK or the CB2 receptor antagonist PGN-8, -37, and -70, together with the cannabinoid WIN-55,212-2, were also added. Cell viability was determined by means of the WST-1 assay [2-(4-iodophenyl)-3-(4-nitrophenyl)-5-(2,4-disulfophenyl)-2H-tetrazolium] according to the manufacturer's instructions (Dojindo Molecular Technologies). Optical densities were measured at 450 nm using a Multiskan™ Go Microplate plate reader (Thermo Fisher Scientific, Waltham, Mass., USA).

[2] = tested on: U266 and RPMI cell lines; assay: Pretreatment with antagonists/inhibitors before WIN-55, MTT viability; conditions: for effect of inhibitor on WIN-55-induced apoptosis / loss of viability: WIN-55 at suboptimal concentrations, 18 hours; for effect of preincubation with CB2 antagonist on pro-apoptotic effect induced by WIN-55: 30 minutes pretreatment, then WIN-55 up to 18 hours
Experimental: (§1) The MM cell lines and primary cells were exposed to different doses of indazole compounds, and viability was evaluated at 18, 48, and 72 hours. Pretreatments with the ceramide synthesis inhibitor (FB1), pan-caspase (ZVAD-FMK), and CB antagonists (PGN-8, PGN-37, and PGN-70) were performed for 30 minutes, and then the cells were incubated with indazole compound WIN-55 up to 18 hours. Cell viability was determined using the MTT assay Cell Counting Kit-8 (Dojindo, Kumamoto, Japan) according to the manufacturer's instructions.

[3] = tested on: U266; assay: Western blot and immunofluorescence in U266 cells; conditions: U266, 50 μM fumonisin B1
Experimental: The extracts for Western blot were taken after 0, 2, 6, 18, and 24 hours. The cells were lysed according to Gilbert et al., 2002. (J Immunol Methods. 2002, 271:185-201), by adding 2% ASB-14 (Calbiochem, Beeston, United Kingdom) to the isotonic lysis buffer. The protein concentration was determined by Pierce® Microplate BCA Protein Assay kit-Reducing Agent Compatible (Pierce, Rockford, Ill.). The samples were subjected to SDS/PAGE in AnykD precast gels (Bio Rad, Hercules, Calif.) and transferred to PVDF membranes using Trans-Blot® Turbo™ System (Bio-Rad). The membranes were incubated over night at 4° C. with primary antibody in 0.05% Tween 20-Tris buffered saline (TTBS) then with the suitable secondary antibody, and they were subjected to chemiluminescence detection. As a control condition, the cells were treated with DMSO (<0.15%) in RPMI 1640 medium from Gibco (Gaithersburg, Md.).
The antibodies for caspase-2, -8, -9, active caspase-3, -p-Akt (phospho T308), p-Erk (T202+Y204), -p-p38MAPK (phospho T180+Y182), -p-JNK (phospho T183+Y185), -SPT, and the CB1 and CB2 receptors were from Abcam, anti-MCL-1 and -Bcl-xL were from Santa Cruz Biotechnology, anti-PARP was from Cell Signaling Technology, anti-Bax and -Bak were from BD Biosciences. Anti-beta-tubulin was from Sigma-Aldrich. All the horseradish peroxidase (HRP)-conjugated secondary antibodies used were from Jackson ImmunoResearch and produced in a donkey to prevent the possible cross-reactivity when several tests were performed.
The cells treated for 6 hours with indazole compounds were collected and placed on a slide. Immunofluorescence staining was performed as described previously by Vielhaber et al. 2001 (Glycobiology. 2001, 11:451-7) using anti-ceramide as the primary antibody. The ceramide antibody was obtained from Sigma-Aldrich, and the Alexa-488-conjugated secondary antibody was obtained from Abcam. As a control condition, the cells were treated with DMSO (<0.15%) in RPMI 1640 medium from Gibco (Gaithersburg, Md.).

[4] = tested on: RPMI8226; assay: MTT cell viability assay, myeloma cell line RPMI; conditions: read-out: IC50, cell viability
Experimental: (§2) In vitro studies were carried out using six different human MM cell lines, U266, RPMI8226, MM1S, MM1R, U266-LR7, and RPMI-LR5. For ex vivo assays, human primary cells from healthy donors and MM patients were used (Table 1). Human MM cell lines U266, RPMI8226, and MM1.S were acquired from ATCC and lines U266-LR7, RPMI-LR5, and MM1.R were kindly provided by Dr. Enrique Ocio (Hospital Universitario de Salamanca, Spain). The primary cells were obtained from bone marrow (BM) aspirates or peripheral blood (PB) samples, and the peripheral blood mononuclear cells (PBMCs) were isolated by Ficoll-Hypaque centrifugation and washed twice in phosphate buffered saline (PBS) containing 1% BSA. Hematopoietic stem cells and B and T lymphocytes were isolated from healthy PB donors by positive immunomagnetic separation using human MACS CD34+, CD19+, and CD3+ microbeads, respectively. MM plasma cells were obtained from the bone marrow (BM) of patients with an infiltration of cells of more than 30% (Table 1). The MM plasma cells were identified using CD138+, and were then distinguished from the other cell populations by flow cytometry using a suitable combination of antibodies: anti-human CD64-FITC, CD34-PE, CD56-APC, CD38-APC-H7, and CD45-Pacific Blue antibodies (BD Biosciences, San Jose, Calif.). All the cell lines were cultured in RPMI-1640 supplemented with 10% fetal bovine serum (FBS) and 1% penicillin/streptomycin, as recommended by the supplier. For human primary cells, the concentration of FBS was up to 20%.
as §1

[5] = tested on: RPMI-LR5; assay: MTT cell viability assay, myeloma cell line RPMI-LR5; conditions: read-out: IC50, cell viability
Experimental: as §2, §1

[6] = tested on: U266; assay: MTT cell viability assay, myeloma cell line U266; conditions: read-out: IC50, cell viability
Experimental: as §2, §1

[7] = tested on: U266-LR7; assay: MTT cell viability assay, myeloma cell line U266-LR7; conditions: read-out: IC50, cell viability
Experimental: as §2, §1

[8] = tested on: myeloma cell lines; assay: MTT cell viability assay, average over all myeloma cell lines; conditions: read-out: IC50 average
Experimental: as §2, §1

[9] = tested on: lymphocytic T-cells (CD3+) and B-cells (CD19+); assay: Viability of T and B lymphocytes from healthy donors (MTT)
Experimental: as §2, with “The MM plasma cells were identified using CD138+, and were then distinguished from the other cell populations by flow cytometry using a suitable combination of antibodies: anti-human CD64-FITC, CD34-PE, CD56-APC, CD38-APC-H7, and CD45-Pacific Blue antibodies (BD Biosciences, San Jose, Calif.). All the cell lines were cultured in RPMI-1640 supplemented with 10% fetal bovine serum (FBS) and 1% penicillin/streptomycin, as recommended by the supplier. For human primary cells, the concentration of FBS was up to 20%.” left out
The MM cell lines and primary cells were exposed to different doses of indazole compounds, and viability was evaluated at 18, 48, and 72 hours. […] Cell viability was determined using the MTT assay Cell Counting Kit-8 (Dojindo, Kumamoto, Japan) according to the manufacturer's instructions.

[10] = tested on: MM1R; assay: MTT cell viability assay, myeloma cell line MM1R; conditions: read-out: IC50, cell viability
Experimental: as §2, §1

[11] = tested on: MM1S; assay: MTT cell viability assay, myeloma cell line MM1S; conditions: read-out: IC50, cell viability
Experimental: as §2, §1

[12] = tested on: HL60; assay: Western blot and immunocytofluorescence in HL60 cells; conditions: HL60, WIN-55,212-2 10 μM
Description: The detailed methodology for analyzing mitochondrial membrane potential (APm), Western Blot analysis, and immunocytofluorescence analysis has been described elsewhere 29

[13] = Homo sapiens, RPMI-8226, RPMI, MTT, 18 hours, doses 0-50 μM
[14] = Homo sapiens, RPMI-LRS, MTT, 18 hours, doses 0-50 μM
[15] = Homo sapiens, U-266, U266, MTT, 18 hours, doses 0-50 μM
[16] = Homo sapiens, U266-LR7, MTT, 18 hours, doses 0-50 μM
[17] = Homo sapiens, average over the six myeloma cell lines, MTT, 18 hours
[18] = Homo sapiens, MM.1R, MM1R, MTT, 18 hours, doses 0-50 μM

## CCCC[C@@H](C)[C@@H](OC(=O)C[C@@H](CC(=O)O)C(=O)O)[C@H](C[C@@H](C)C[C@H](O)CCCC[C@@H](O)C[C@H](O)[C@H](C)N)OC(=O)C[C@@H](CC(=O)O)C(=O)O [FB1, Fumonisin B1]
[1]
  effect of inhibitor on cannabinoid-induced loss of viability: only partially prevented
[2]
  effect of inhibitor on WIN-55-induced apoptosis / loss of viability: significantly reverses the effect
[3]
  effect on PARP fragmentation induced by WIN-55: considerably prevented the PARP fragmentation

## c1ccc2c(COc3nn(CCN4CCCCC4)c4ccccc34)cccc2c1 [PGN6, 3-(1-naphthylmethoxy)-1-(2-piperidinoethyl)indazole]
[4]; [13]
  IC50: 14.4 µM
[5]; [14]
  IC50: 13.7 µM
[6]; [15]
  IC50: 25.4 µM
[7]; [16]
  IC50: 78.2 µM
[8]; [17]
  IC50: 29.7 µM
[9]
  viability of the lymphocytes: did not affect the viability of the lymphocytes
[10]; [18]
  IC50: 18.6 µM

## c1ccc2c(COc3nn(CCN4CCCC4)c4ccccc34)cccc2c1 [PGN17]
[4]; RPMI, MTT, 18 hours, doses 0-50 μM
  IC50: 19.9 µM
[5]; RPMI-LRS, MTT, 18 hours, doses 0-50 μM
  IC50: 21.7 µM
[6]; U266, MTT, 18 hours, doses 0-50 μM
  IC50: 20.7 µM
[7]; U266-LR7, MTT, 18 hours, doses 0-50 μM
  IC50: 51 µM
[11]; MM1S, MTT, 18 hours, doses 0-50 μM
  IC50: 44.6 µM
[8]; average over the six myeloma cell lines, MTT, 18 hours
  IC50: 29.7 µM
[9]; healthy donors, doses with antiproliferative effect on MM cell lines
  viability of the lymphocytes: did not affect the viability of the lymphocytes
[10]; MM1R, MTT, 18 hours, doses 0-50 μM
  IC50: 20.5 µM

## Nc1ccc2c(c1)c(OCc1ccc3ccccc3c1)nn2CCN1CCCCC1 [PGN34, 5-amino-3-(2-naphthylmethoxy)-1-(2-piperidinoethyl)indazole]
[4]; Homo sapiens, RPMI-8226, 18 h
  IC50: 15.4 µM
[5]; Homo sapiens, 18 h
  IC50: 23.2 µM
[6]; Homo sapiens, U-266, 18 h
  IC50: 26.9 µM
[7]; Homo sapiens, 18 h
  IC50: 17.8 µM
[11]; Homo sapiens, MM1.S, 18 h
  IC50: 17.1 µM
[8]; Homo sapiens, 18 h
  IC50: 20.2 µM
[10]; Homo sapiens, MM.1R, 18 h
  IC50: 21 µM

## Nc1ccc2c(c1)c(OCc1cccc3ccccc13)nn2CCN1CCCCC1 [PGN72, 5-amino-3-(1-naphthylmethoxy)-1-(2-piperidinoethyl)indazole]
[4]; [13]
  IC50: 19.6 µM
[5]; [14]
  IC50: 41.4 µM
[6]; [15]
  IC50: 21.2 µM
[7]; [16]
  IC50: 20.6 µM
[11]; Homo sapiens, MM1.S, MM1S, MTT, 18 hours, doses 0-50 μM
  IC50: 24.8 µM
[8]; [17]
  IC50: 25.7 µM
[10]; [18]
  IC50: 26.7 µM

## Cn1nc(OCc2cccc3ccccc23)c2cc([N+](=O)[O-])ccc21 [PGN-8, 1-methyl-3-(1-naphthylmethoxy)-5-nitroindazole]
[1]
  effect of CB2 antagonist on cannabinoid-induced apoptosis: significantly inhibiting cannabinoid-induced apoptosis
[2]
  effect of preincubation with CB2 antagonist on pro-apoptotic effect induced by WIN-55: considerably inhibited

## COc1ccc(COc2n[nH]c3ccc([N+](=O)[O-])cc23)cc1 [PGN-37, 3-(4-methoxybenzyloxy)-5-nitro-1H-indazole]
[1]
  effect of CB2 antagonist on cannabinoid-induced apoptosis: significantly inhibiting cannabinoid-induced apoptosis
[2]
  effect of preincubation with CB2 antagonist on pro-apoptotic effect induced by WIN-55: considerably inhibited

## O=[N+]([O-])c1ccc2[nH]nc(OCc3cccc4ccccc34)c2c1 [PGN-70, 3-(1-naphthylmethoxy)-5-nitro-1H-indazole]
[1]
  effect of CB2 antagonist on cannabinoid-induced apoptosis: significantly inhibiting cannabinoid-induced apoptosis
[2]
  effect of preincubation with CB2 antagonist on pro-apoptotic effect induced by WIN-55: considerably inhibited

## COC(=O)C[C@H](NC(=O)[C@H](C)NC(=O)[C@@H](NC(=O)OCc1ccccc1)C(C)C)C(=O)CF [Z-VAD-FMK] (Cbz-Val-Ala-Asp(OMe)-CH2F)
[1]
  effect of inhibitor on cannabinoid-induced loss of viability: abolished
[2]
  effect of inhibitor on WIN-55-induced apoptosis / loss of viability: prevented the apoptosis

## CCCCCCC(=O)CCCCCC/C=C/C[C@@H](O)[C@H](O)[C@@](N)(CO)C(=O)O [myriocin, Myriocin]
[12]
  effect on PARP fragmentation and Casp 3 cleavage induced by WIN-55,212-2: prevented the fragmentation of PARP and the cleavage of Casp 3
